# Data from patent publication US9284325B2, “Spectinamides as anti-tuberculosis agents” (UNIVERSITY OF TENNESSEE RESEARCH FOUNDATION, priority 2009, dated 2016).
# Counter-ions that a name gives are not always drawn.
# What was measured:
# [1] = test system: Proteus mirabilis ATCC 25933; assay: MIC determination by microbroth dilution; format: cell-based; conditions: ATCC25933
# [2] = test system: B. anthracis Sterne 34F2; assay: microbe, parasite or virus in culture; format: cell-based, Bacillus anthracis; conditions: Bacillus anthracis, STERNE34F2, read-out: MIC B. anthracis 34F2
# [3] = test system: Burkholderia cepacia ATCC 25416; assay: MIC determination by microbroth dilution; format: cell-based; conditions: ATCC25416, read-out: MIC B. cepcia
# [4] = test system: E. coli K12 ΔtolC; assay: microbe, parasite or virus in culture; format: cell-based; conditions: Escherichia coli, read-out: MIC E. coli K12 ΔtolC
# [5] = test system: M. tuberculosis H37Rv; assay: MIC determination by microbroth dilution, anti-tuberculosis activity; format: cell-based, Mycobacterium tuberculosis; conditions: Mycobacterium tuberculosis, H37RV, 168 h; read-out: MIC
# [6] = test system: Acinetobacter baumannii ATCC 19606; assay: MIC determination by microbroth dilution; format: cell-based; conditions: ATCC19606
# [7] = test system: E. faecalis ATCC 33186; assay: MIC determination by microbroth dilution; format: cell-based, Enterococcus faecalis; conditions: Enterococcus faecalis, ATCC33186
# [8] = test system: Proteus vulgaris ATCC 33420; assay: MIC determination by microbroth dilution; format: cell-based; conditions: ATCC33420
# [9] = test system: Strep. pneumoniae DAW27 or strain R6; assay: MIC determination by microbroth dilution; format: cell-based, Streptococcus pneumoniae; conditions: Streptococcus pneumoniae; Strep. pneumoniae DAW27 or strain R6 (for 1443-1544); read-out: MIC S. pneumoniae
# [10] = test system: E. coli K12; assay: MIC determination by microbroth dilution; format: cell-based, Escherichia coli; conditions: Escherichia coli, K12
# [11] = test system: E. coli ribosomes; format: biochemical; conditions: for IC50, 50% inhibition of luciferase biosynthesis in S30 assay: E. coli S30 transcription/translation assay
# [12] = test system: Strenotrophomonas maltophilia ATCC 13637; assay: MIC determination by microbroth dilution; format: cell-based
# [13] = test system: S. aureus 8325 or strain ATCC 29213; assay: MIC determination by microbroth dilution; format: cell-based, Staphylococcus aureus; conditions: Staphylococcus aureus, ATCC29213; S. aureus 8325 or strain ATCC 29213 (for 1471-1544)
# [14] = test system: Strep. pyogenes ATCC 700294; assay: MIC determination by microbroth dilution; format: cell-based, Streptococcus pyogenes; conditions: Streptococcus pyogenes, ATCC700294, read-out: MIC S. pyogenes
# [15] = test system: P. aeruginosa PAO1; assay: MIC determination by microbroth dilution; format: cell-based, Pseudomonas aeruginosa; conditions: Pseudomonas aeruginosa
# [16] = test system: Klebsiella pneumoniae ATCC 33495; assay: MIC determination by microbroth dilution; format: cell-based; conditions: ATCC33495
Structure (SMILES),MIC [1] [µg/mL],MIC [2] [µg/mL],MIC [3] [µg/mL],MIC [4] [µg/mL],MIC [5] [µg/mL],MIC [6] [µg/mL],MIC [7] [µg/mL],MIC [8] [µg/mL],MIC [9] [µg/mL],MIC [10] [µg/mL],"IC50, 50% inhibition of luciferase biosynthesis in S30 assay [11] [µg/mL]",MIC [12] [µg/mL],MIC [13] [µg/mL],MIC [14] [µg/mL],MIC [15] [µg/mL],MIC [16] [µg/mL],"relative inhibitory activity on luciferase production ([11]; tested at 0.66 and 6.6 μM, FIG. 5)"
"CN[C@@H]1[C@H](O)[C@H](NC)C2O[C@]3(O)C(OC2[C@H]1O)O[C@H](C)C[C@H]3NC(=O)CCc1cccnc1 (stereo partly drawn) [Compound 1299, 3′-Dihydro-3′-deoxy-4(R)-(3-pyridin-3-yl)propionylamino spectinomycin Dihydrochloride]",> 200,200,> 200,200,25,> 200,> 200,> 200,200,> 200,0.97,> 200,200,200,> 200,> 200,
"CN[C@@H]1[C@H](O)[C@H](NC)C2O[C@]3(O)C(OC2[C@H]1O)O[C@H](C)C[C@H]3NC(=O)Cc1ccc(F)cn1 (stereo partly drawn) [Compound 1445, 3′-Dihydro-3′-deoxy-4(R)-(5-fluoropyridin-2-yl)acetylamino spectinomycin trihydrobromide]",> 200,25,> 200,200,0.4,> 200,25,> 200,12.5,100,0.25,> 200,25,12.5,> 200,100,
"CN[C@@H]1[C@H](O)[C@H](NC)C2O[C@]3(O)C(OC2[C@H]1O)O[C@H](C)C[C@H]3NC(=O)c1cnccn1 (stereo partly drawn) [Compound 1453, 3′-Dihydro-3′-deoxy-4(R)-(pyrazine-2-yl)carboxylicamino spectinomycin tetrahydrobromide]",> 200,> 200,> 200,200,> 200,> 200,> 200,> 200,25,> 200,1.04,> 200,> 200,25,> 200,> 200,
"CN[C@@H]1[C@H](O)[C@H](NC)C2O[C@]3(O)C(OC2[C@H]1O)O[C@H](C)C[C@H]3NCCC(C)C (stereo partly drawn) [Compound 1420, 3′-Dihydro-3′-deoxy-4(R)-(3-methyl)butylamino spectinomycin Trihydrochloride]",> 200,50,> 200,25,200,> 200,200,> 200,100,100,,200,100,200,200,> 200,inhibited well
"CN[C@@H]1[C@H](O)[C@H](NC)C2O[C@]3(O)C(OC2[C@H]1O)O[C@H](C)C[C@H]3NC(=O)Cc1nc2ccccc2o1 (stereo partly drawn) [Compound 1465, 3′-Dihydro-3′-deoxy-4(R)-(benzooxazol-2-yl)acetylamino spectinomycin trihydrobromide]",> 200,100,> 200,12.5,3.12,> 200,100,> 200,12.5,> 200,0.50,> 200,> 200,12.5,> 200,> 200,
